The results in this text go back to publication PMC7762957, “Snapshots during the catalytic cycle of a histidine acid phytase reveal an induced-fit structural mechanism” (The Journal of Biological Chemistry, 2020).

The target of data set [1] is T1, AnPhyA (Aspergillus niger, UniProt P34752).
T1 construct: gene phyA; codon-optimised, N-terminal 3C site, C-terminal His6; secreted from Pichia pastoris KM71H; Ni-NTA purified
T1 sequence (P34752 24-467): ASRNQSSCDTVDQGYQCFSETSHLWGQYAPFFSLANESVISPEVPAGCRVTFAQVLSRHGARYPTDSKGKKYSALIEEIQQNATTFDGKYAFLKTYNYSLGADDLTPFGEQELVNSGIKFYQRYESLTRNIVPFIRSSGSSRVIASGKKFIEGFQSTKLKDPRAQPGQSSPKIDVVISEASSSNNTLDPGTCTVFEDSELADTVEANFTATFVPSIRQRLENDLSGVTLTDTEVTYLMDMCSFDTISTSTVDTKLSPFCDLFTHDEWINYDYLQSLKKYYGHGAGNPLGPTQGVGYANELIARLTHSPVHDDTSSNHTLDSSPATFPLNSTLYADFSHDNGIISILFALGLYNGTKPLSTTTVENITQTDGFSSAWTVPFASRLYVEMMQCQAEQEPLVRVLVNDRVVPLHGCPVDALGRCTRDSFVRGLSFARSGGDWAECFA
Description: HPLC of inositol polyphosphate products. The format is biochemical. As to conditions: pH 5.5, 200 mM sodium acetate, 150 mM NaCl; 1 mM substrate, 25 nM enzyme.

The target in data set [2] is T2, EcAppA (Escherichia coli, UniProt P07102).
T2 construct: gene appA; pOPINB, N-terminal cleavable His tag, cytoplasmic expression in E. coli Shuffle Express T7; Ni-NTA and gel filtration
T2 sequence (P07102 23-432): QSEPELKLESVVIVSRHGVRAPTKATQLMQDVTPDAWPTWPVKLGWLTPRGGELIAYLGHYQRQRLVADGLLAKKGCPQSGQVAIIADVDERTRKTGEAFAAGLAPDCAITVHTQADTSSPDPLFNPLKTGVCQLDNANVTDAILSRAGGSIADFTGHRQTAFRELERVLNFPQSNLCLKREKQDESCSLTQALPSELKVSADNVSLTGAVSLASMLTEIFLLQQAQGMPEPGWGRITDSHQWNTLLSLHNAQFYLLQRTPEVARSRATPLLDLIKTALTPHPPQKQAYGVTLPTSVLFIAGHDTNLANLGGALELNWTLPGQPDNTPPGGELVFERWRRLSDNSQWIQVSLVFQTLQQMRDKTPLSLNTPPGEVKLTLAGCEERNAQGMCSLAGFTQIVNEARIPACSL
In words: HPLC of inositol polyphosphate products. The conditions noted are these: pH 5.5, 200 mM sodium acetate, 150 mM NaCl; 1 mM substrate, 25 nM enzyme. The format is biochemical.

Data set [3] concerns the target T3, BtMINPP (Bacteroides thetaiotaomicron, UniProt Q89YI8).
T3 construct: gene BT_4744
T3 sequence (Q89YI8 21-425): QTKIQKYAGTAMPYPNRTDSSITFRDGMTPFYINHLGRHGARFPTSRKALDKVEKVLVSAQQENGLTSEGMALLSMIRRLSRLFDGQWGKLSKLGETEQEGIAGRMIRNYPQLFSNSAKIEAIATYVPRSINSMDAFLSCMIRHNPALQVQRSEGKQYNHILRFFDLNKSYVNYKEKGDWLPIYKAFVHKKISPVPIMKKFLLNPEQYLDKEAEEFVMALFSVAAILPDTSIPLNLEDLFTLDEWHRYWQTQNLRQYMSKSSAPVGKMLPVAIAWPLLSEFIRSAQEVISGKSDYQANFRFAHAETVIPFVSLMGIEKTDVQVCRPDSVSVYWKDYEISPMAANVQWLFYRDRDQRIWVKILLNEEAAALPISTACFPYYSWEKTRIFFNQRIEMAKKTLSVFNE
In words: HPLC of inositol polyphosphate products. Type of data set: biochemical. As to conditions: pH 5.5, 200 mM sodium acetate, 150 mM NaCl; 1 mM substrate, 25 nM enzyme.

For data set [4], the target named is BlMINPP (Bifidobacterium longum, UniProt B7GTV0). In words: X-ray crystal structure of complex, […] A. Type of data set: binding. The arrangement: gene Blon_0263; N-terminal His6 tag cleaved (WT: pOPINF, 3C protease; variants: pET28a, thrombin); E. coli Rosetta(DE3) pLysS. As to conditions: non-hydrolysable substrate analogue in active site, two orientations; co-crystallised with 1 mM InsS6.

Substrate in data set [5]: O=P(O)(O)O[C@H]1[C@H](OP(=O)(O)O)[C@@H](OP(=O)(O)O)[C@H](OP(=O)(O)O)[C@@H](OP(=O)(O)O)[C@H]1OP(=O)(O)O
In words: purified protein. As to conditions: pH 5.5, 200 mM sodium acetate, 0.15 M NaCl, room temperature, 25 nM enzyme.

In the case of `O=P(O)(O)O[C@H]1[C@H](OP(=O)(O)O)[C@@H](OP(=O)(O)O)[C@H](OP(=O)(O)O)[C@@H](OP(=O)(O)O)[C@H]1OP(=O)(O)O` [InsP6, myo-Inositol 1,2,3,4,5,6-hexakisphosphate], the “HPLC of inositol polyphosphate products” value in data set [1] is on record as “products of InsP6 hydrolysis by BlMINPP, BtMINPP, A. niger PhyA (AnPhyA)”; in data set [2] it was “E.coli AppA, which is accepted to possess high positional specificity”; in data set [3], “HPLC chromatograms of the products of InsP6 hydrolysis by BlMINPP, BtMINPP”.

With `O=S(=O)(O)O[C@H]1[C@H](OS(=O)(=O)O)[C@@H](OS(=O)(=O)O)[C@H](OS(=O)(=O)O)[C@@H](OS(=O)(=O)O)[C@H]1OS(=O)(=O)O` [InsS6], in data set [4], the “X-ray crystal structure of complex, 1.84 A” value is “A crystal of the purified recombinant enzyme grown in the presence of an excess InsS6”.

B1: BlMINPP (Bifidobacterium longum subsp. infantis ATCC 15697 = JCM 1222 = DSM 20088) (protein)
chain: MEADGRYYSSKQPYVAPNDATASSYSKAPKGYGPIYTESMARHGSRGLSSYKYDALLMRMAETAARDGGFKSEAIKAEFVKNLSGITAANVENGYGMLTGQGAQQHYGIGERAYQRNRSLFDQAAADGGTIAYQSSGEARATESGENFEKGFNEASGGRLIGNVSAPTNPADSGNGKDFQKNPDTLYFHKVQNPDGTSKVPGTKAYDIANNYQNFVANDATIAGAEKTIGDNVDVKRASHDLLSQIFTEEFLAKLENGEYKWYNTTDGTKKGGKNCAPGADASKDPDACGEVSKKIKSEYDAAMDLYNLYIIAADMHNENTGDHTFAFDQYFQGAYADDARMFAWALDAEDFYEKGPSYAGQNETYSIAQPLLDDFLNTIDARVNGGSTVATFRFAHAETMMPFAALLGLPGSTQQAPASTTDVYTYGNNEWRGESVTPMAANVQWDVYARKGEDPATGQRYTPIVRMLYNENEVPFRSECTPVADGSTWYKLTELKSCLAADHKTLGQDARI
By Km is commonly meant the concentration of substrate that gives half-maximal velocity. A word on the kcat: it is the maximal rate divided by the concentration of active sites. Usually kcat/Km stands for the turnover number divided by the Michaelis constant. Consider B1, for which, in data set [5], the Km amounted to 54.5 ± 8.4 µM, the kcat came out at 46.8 s⁻¹ and the kcat/Km was 900000 M⁻¹ s⁻¹.
